The text below walks through data of patent US12435072B2, “Compounds” (Vicore Pharma AB, priority 2019, dated 2025).

Molecules are shown by their SMILES. Where two headings read alike, the source gives them in different places. Where only a bound is given, the exact number is not on record here.

The target of data set [1] is T1, human recombinant AT2 receptor (Homo sapiens, UniProt P50052).
T1 construct: purchased Eurofins ITEM26
T1 sequence (P50052 1-363): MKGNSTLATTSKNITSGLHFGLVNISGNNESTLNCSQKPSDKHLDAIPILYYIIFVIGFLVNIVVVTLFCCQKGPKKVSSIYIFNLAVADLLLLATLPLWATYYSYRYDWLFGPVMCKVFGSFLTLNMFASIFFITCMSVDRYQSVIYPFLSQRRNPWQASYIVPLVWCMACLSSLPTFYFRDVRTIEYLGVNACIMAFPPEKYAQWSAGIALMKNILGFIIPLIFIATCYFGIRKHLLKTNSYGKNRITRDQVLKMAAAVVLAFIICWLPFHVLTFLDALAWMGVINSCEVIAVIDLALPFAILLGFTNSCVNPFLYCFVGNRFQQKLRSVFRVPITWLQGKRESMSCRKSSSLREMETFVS
The experiment in a line: Binding to AT2 receptor, radiometric scintillation assay (Eurofins). The settings on record: ligand 125I CGP 42112A, tested at 1, 10, 100 and 1000 nM. The method, then: (§1) Compounds were evaluated for binding to the human recombinant AT2 and AT1 receptor according to Eurofins protocol ITEM26 and ITEM24 using a radiometric scintillation assay.

For data set [2], the target named is T2, human recombinant AT1 receptor (Homo sapiens, UniProt P30556).
T2 construct: purchased Eurofins ITEM24
T2 sequence (P30556 1-359): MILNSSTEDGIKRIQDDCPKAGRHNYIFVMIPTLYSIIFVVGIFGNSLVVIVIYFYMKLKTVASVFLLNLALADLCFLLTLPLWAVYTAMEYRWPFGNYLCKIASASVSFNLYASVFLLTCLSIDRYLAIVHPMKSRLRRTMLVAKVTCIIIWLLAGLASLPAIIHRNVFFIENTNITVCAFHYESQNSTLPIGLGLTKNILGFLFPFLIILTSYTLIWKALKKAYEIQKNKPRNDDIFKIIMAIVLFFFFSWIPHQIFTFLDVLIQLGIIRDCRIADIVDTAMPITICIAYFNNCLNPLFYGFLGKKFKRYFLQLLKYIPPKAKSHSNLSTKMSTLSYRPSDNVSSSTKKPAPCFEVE
In words: Binding to AT1 receptor, radiometric scintillation assay (Eurofins). Particulars: ligand 125I(sar1,Ile8)-AT-II, tested at 1 and 10 μM. As to the method:
as §1

Data set [3] deals with T3, CYP1A (Homo sapiens, UniProt P05177).
T3 construct: incubated with human liver microsomes; tissue Eurofins ITEMG232; host or cells: human liver microsomes
T3 sequence (P05177 1-516): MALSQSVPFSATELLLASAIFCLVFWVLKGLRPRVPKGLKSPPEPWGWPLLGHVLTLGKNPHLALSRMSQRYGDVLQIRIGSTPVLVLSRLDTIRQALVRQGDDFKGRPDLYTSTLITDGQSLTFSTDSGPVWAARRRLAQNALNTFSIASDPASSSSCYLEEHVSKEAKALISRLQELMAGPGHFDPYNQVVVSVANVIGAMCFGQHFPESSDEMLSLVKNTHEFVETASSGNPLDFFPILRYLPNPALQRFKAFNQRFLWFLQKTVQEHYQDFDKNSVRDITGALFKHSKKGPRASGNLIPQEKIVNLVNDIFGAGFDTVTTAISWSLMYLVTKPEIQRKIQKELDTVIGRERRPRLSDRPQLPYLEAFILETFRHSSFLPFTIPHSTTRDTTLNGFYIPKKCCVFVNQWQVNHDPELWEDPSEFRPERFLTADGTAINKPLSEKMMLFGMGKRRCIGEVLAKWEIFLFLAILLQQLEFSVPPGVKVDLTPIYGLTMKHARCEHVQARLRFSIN
In words: CYP inhibition in human liver microsomes, CYP1A. The settings on record: probe phenacetin, substrate phenacetin, read-out: CYP1A Inh %. Format: in vitro ADME. As to the method:
(§2) The following substrates were used: CYP1A phenacetin, CYP2B6 bupropion, CYP2C8 paclitaxel and amodiaquine, CYP2C9 diclofenac, CYP2C19 omeprazole, CYP2D6 dextromethorphan, CYP3A midazolam and testosterone. At the end of the incubation, the formation of metabolite was monitored by HPLC-MS/MS as the peak area response.
On the technique in general: Liver microsomes are a subcellular fraction often used to study metabolism.

Data set [4] deals with T4, CYP2B6 (Homo sapiens, UniProt P20813).
T4 construct: incubated with human liver microsomes; tissue Eurofins ITEMG232; host or cells: human liver microsomes
T4 sequence (P20813 1-491): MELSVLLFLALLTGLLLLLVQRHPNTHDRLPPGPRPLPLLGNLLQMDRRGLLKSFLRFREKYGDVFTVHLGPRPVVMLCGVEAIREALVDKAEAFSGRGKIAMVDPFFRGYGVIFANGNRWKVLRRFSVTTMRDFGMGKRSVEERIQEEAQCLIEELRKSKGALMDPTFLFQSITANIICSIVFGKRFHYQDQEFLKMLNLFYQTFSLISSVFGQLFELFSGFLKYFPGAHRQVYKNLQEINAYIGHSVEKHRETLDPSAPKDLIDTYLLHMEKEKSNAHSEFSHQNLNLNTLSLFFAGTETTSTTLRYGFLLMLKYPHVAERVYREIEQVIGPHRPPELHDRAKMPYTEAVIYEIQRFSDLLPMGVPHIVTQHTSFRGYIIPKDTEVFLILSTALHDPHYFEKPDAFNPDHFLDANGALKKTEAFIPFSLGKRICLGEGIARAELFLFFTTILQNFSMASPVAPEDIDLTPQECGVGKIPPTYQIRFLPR
In words: CYP inhibition in human liver microsomes, CYP2B6. Format: in vitro ADME. Particulars: probe bupropion, substrate bupropion, read-out: CYP2B6 Inh %. The method, then: as §2

For data set [5], the target named is T5, CYP2C19 (Homo sapiens, UniProt P33261).
T5 construct: incubated with human liver microsomes; tissue Eurofins ITEMG232; host or cells: human liver microsomes
In words: CYP inhibition in human liver microsomes, CYP2C19. In kind it is in vitro ADME. The settings on record: probe omeprazole, substrate omeprazole, read-out: CYP2C19 Inh %. As to the method:
as §2

The target of data set [6] is T6, CYP2C8 (Homo sapiens, UniProt P10632).
T6 construct: incubated with human liver microsomes; tissue Eurofins ITEMG232; host or cells: human liver microsomes
T6 sequence (P10632 1-490): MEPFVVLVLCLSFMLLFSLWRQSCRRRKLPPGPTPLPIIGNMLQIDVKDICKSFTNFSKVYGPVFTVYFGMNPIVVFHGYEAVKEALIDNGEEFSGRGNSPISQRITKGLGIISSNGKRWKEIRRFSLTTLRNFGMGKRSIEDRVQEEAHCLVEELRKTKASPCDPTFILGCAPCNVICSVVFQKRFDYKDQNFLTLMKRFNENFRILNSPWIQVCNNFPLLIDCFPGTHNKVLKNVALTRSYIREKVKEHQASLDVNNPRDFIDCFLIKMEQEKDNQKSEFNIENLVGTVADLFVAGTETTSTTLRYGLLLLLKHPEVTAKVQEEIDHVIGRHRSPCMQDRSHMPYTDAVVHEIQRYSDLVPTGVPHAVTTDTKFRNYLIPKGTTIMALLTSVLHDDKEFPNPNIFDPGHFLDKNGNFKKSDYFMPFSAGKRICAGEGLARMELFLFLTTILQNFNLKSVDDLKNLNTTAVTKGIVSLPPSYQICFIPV
In words: CYP inhibition in human liver microsomes, CYP2C8. The settings on record: probe paclitaxel and amodiaquine, substrate paclitaxel and amodiaquine, read-out: CYP2C8 Inh %. Format: in vitro ADME. The method, then:
as §2

Data set [7] deals with T7, CYP2D6 (Homo sapiens, UniProt P10635).
T7 construct: incubated with human liver microsomes; tissue Eurofins ITEMG232; host or cells: human liver microsomes
In words: CYP inhibition in human liver microsomes, CYP2D6. Format: in vitro ADME. Particulars: probe dextromethorphan, substrate dextromethorphan, read-out: CYP2D6 Inh %. The method, then:
as §2

The test system of data set [8] is CYP3A4&5. The experiment in a line: CYP inhibition in human liver microsomes, CYP3A4&5 (testosterone). In kind it is in vitro ADME. The settings on record: probe testosterone, substrate testosterone, read-out: CYP3A4&5 testosterone Inh %. The method, then:
as §2

Data set [9] addresses CYP2C9 (Homo sapiens, UniProt P11712). The experiment in a line: CYP inhibition in human liver microsomes, CYP2C9. Format: in vitro ADME. Further details: incubated with human liver microsomes; tissue Eurofins ITEMG232; host or cells: human liver microsomes. Particulars: probe diclofenac, substrate diclofenac, read-out: CYP2C9 Inh %. As to the method: as §2
The target of data set [10] is CYP3A4 (Homo sapiens, UniProt P08684). The experiment in a line: CYP inhibition in human liver microsomes, CYP3A4 (midazolam). Format: in vitro ADME. Further details: incubated with human liver microsomes; tissue Eurofins ITEMG232; host or cells: human liver microsomes. The settings on record: probe midazolam, substrate midazolam, read-out: CYP3A4 midazolam Inh %. As to the method:
as §2

Data set [11] can be described thus: Metabolic stability in pooled human liver microsomes. Format: in vitro ADME. The settings on record: pooled human liver microsomes 0.5 mg/ml, 1 μM test compound, 37° C. The method, then: Pooled human liver microsomes in PBS at a concentration of 0.5 mg/ml was incubated with or without 1 mM NADPH for 70 min at 37° C. Test compound was added after 10 minutes to a final concentration of 1 μM. Samples were withdrawn at 0, 5, 15 and 60 minutes and added to test tubes containing acetonitrile, to stop the reaction, and with terfenadine, used as internal standard. After centrifugation at 10 000×g for 5 minutes the supernatant was diluted 1:1 with 1% formic acid. Samples were separated on a reverse phase column and detected by triple quadrupole MSMS (Agilant model 6540). The concentration of the parent compound at the different time points was measured with an external standard curve using terfenadine as internal standard and the initial metabolic rate in the presence or absence of NADPH calculated.

[12] abbreviates: with 1 mM NADPH, read-out: T1/2, + NaDPH.
[13] abbreviates: without NADPH, read-out: T1/2, no NaDPH.

T7 sequence (P10635 whole entry): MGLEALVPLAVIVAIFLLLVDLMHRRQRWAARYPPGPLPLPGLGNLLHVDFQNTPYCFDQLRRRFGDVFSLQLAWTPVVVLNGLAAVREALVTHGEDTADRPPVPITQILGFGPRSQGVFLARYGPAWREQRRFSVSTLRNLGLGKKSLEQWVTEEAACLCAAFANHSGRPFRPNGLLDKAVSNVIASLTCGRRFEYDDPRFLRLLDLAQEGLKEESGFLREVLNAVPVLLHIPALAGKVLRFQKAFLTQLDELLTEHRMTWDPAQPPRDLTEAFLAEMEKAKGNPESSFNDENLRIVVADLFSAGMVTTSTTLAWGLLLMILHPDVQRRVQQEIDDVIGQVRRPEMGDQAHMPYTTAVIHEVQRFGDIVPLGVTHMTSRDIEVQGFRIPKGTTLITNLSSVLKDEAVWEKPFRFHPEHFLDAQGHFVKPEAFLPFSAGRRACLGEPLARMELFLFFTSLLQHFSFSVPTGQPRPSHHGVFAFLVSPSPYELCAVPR
Sequence of CYP3A4 (P08684 whole entry): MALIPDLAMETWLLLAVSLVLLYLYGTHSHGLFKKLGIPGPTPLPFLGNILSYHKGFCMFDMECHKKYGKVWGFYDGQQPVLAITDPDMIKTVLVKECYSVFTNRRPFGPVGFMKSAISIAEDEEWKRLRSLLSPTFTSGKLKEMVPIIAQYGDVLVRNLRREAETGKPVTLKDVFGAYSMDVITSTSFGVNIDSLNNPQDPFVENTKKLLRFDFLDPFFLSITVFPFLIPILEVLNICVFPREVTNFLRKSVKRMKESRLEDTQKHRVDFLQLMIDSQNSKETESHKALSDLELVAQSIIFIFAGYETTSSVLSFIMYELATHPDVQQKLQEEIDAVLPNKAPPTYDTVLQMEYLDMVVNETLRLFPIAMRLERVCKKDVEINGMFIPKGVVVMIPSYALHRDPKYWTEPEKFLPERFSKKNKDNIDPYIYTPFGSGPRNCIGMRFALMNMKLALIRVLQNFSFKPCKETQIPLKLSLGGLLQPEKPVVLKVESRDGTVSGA
T5 sequence (P33261 whole entry): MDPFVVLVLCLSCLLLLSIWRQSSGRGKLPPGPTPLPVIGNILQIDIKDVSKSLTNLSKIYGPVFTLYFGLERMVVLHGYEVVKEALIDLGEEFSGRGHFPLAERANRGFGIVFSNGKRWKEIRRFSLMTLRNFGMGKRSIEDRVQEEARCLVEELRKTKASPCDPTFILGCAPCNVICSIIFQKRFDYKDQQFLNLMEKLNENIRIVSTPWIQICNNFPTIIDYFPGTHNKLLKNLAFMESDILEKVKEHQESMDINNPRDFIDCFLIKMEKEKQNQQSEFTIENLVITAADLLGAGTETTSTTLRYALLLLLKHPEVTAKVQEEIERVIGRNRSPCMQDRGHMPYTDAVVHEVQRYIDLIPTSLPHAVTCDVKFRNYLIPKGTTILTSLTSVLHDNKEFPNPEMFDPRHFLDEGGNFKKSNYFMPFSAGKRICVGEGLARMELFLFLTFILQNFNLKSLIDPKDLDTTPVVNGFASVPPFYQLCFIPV
Sequence of CYP2C9 (P11712 whole entry): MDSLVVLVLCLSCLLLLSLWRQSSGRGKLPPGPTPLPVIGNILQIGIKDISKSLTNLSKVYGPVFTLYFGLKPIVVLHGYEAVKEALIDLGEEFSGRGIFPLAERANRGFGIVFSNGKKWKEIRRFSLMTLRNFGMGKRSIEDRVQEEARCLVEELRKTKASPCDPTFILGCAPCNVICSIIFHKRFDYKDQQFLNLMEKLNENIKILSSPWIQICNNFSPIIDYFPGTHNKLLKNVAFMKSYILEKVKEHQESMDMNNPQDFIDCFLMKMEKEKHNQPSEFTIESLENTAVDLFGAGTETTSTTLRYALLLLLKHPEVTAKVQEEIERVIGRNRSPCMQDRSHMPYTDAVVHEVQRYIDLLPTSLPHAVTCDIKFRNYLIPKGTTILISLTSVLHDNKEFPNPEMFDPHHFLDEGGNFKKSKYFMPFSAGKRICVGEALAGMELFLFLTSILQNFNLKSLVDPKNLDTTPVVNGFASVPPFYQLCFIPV

Turning to `Cc1cn(Cc2ccc(-c3cc(CC(C)C)sc3S(=O)(=O)NC(=O)NCc3ccccc3)cc2)c(C)n1` [Example 10, 1-Benzyl-3-(3-{p-[(2,4-dimethyl-1H-imidazol-1-yl)methyl]phenyl}-5-isobutyl-2-thienylsulfonyl)urea], the half-inhibitory concentration (IC50) in data set [1] came out at 0.0906 µM; in data set [2], 6 µM. The inhibition at 10 µM in [3] was -5%; in data set [4] it was 15%; in data set [5], 61%; in data set [6] it was 48%; in data set [7], 31%; in [8], 29%. The inhibition at 10 µM was found to be 50% in [9] and 25% in [10].

`Cc1nccn1Cc1ccc(-c2cc(CC(C)C)sc2S(=O)(=O)NC(=O)NCCCC(F)(F)F)cc1F` [Example 18, 3-(3-{3-Fluoro-4-[(2-methyl-1H-imidazol-1-yl)methyl]phenyl}-5-isobutyl-2-thienylsulfonyl)-1-(4,4,4-trifluorobutyl)urea]: the half-life at 1 μM in data set [11] (setting [12]) was 30 min; in data set [11] (setting [13]) it was greater than 60 min. The inhibition at 10 µM was 15% in data set [3]; 59% in [4]; 78% in data set [5]; 72% in data set [6]; 20% in [7]; 24% in data set [8]. In addition, the inhibition at 10 µM in data set [9] was found to be 62%; in [10] it was 50%.

Consider `Cc1nccn1Cc1ccc(-c2cc(CC(C)C)sc2S(=O)(=O)NC(=O)NCCC(F)(F)F)nc1` [Example 19, 3-(5-Isobutyl-3-{5-[(2-methyl-1H-imidazol-1-yl)methyl]-2-pyridyl}-2-thienylsulfonyl)-1-(3,3,3-trifluoropropyl)urea], for which the IC50 is 0.127 µM in data set [1] and 83 µM in [2].

As to `Cc1nccn1Cc1ncc(-c2cc(CC(C)C)sc2S(=O)(=O)NC(=O)NCc2ccccn2)cn1` [Example 22, 3-(5-Isobutyl-3-{2-[(2-methyl-1H-imidazol-1-yl)methyl]-5-pyrimidinyl}-2-thienylsulfonyl)-1-[(2-pyridyl)methyl]urea], the half-inhibitory concentration (IC50) amounted to 0.0169 µM in data set [1] and 51 µM in data set [2].

`Cc1nccn1Cc1ccc(-c2cc(CC(C)C)sc2S(=O)(=O)NC(=O)NCc2cc(F)cc(F)c2)nc1` [Example 23, 1-[(3,5-Difluorophenyl)methyl]-3-(5-isobutyl-3-{5-[(2-methyl-1H-imidazol-1-yl)methyl]-2-pyridyl}-2-thienylsulfonyl)urea]: the values for the concentration for half-maximal inhibition (IC50) in [1] and in data set [2] were 0.357 µM and 16 µM, respectively.

With `CCc1nccn1Cc1ccc(-c2cc(CC(C)C)sc2S(=O)(=O)NC(=O)NCCC(F)(F)F)cc1F.O=C(O)C(F)(F)F` [Example 30, 1-[(3-{4-[(2-ethyl-1H-imidazol-1-yl)methyl]-3-fluorophenyl}-5-(2-methylpropyl)thiophen-2-yl)sulfonyl]-3-(3,3,3-trifluoropropyl)urea trifluoroacetic acid], the figures for the half-life at 1 μM in data set [11] (setting [12]) and in data set [11] (setting [13]) were 40 min and greater than 60 min, respectively. Further, the inhibition at 10 µM in data set [3] was -1%; in [4], 30%; in data set [5] it was 53%; in [6] it was 64%; in data set [7], 12%; in [8], 13%. Further, the values for the inhibition at 10 µM in [9] and in data set [10] were 61% and -3%, respectively.

Regarding `CC(C)Cc1cc(-c2ccc(Cn3ccnc3C(C)C)c(F)c2)c(S(=O)(=O)NC(=O)NCCCC(F)(F)F)s1` [Example 42, 1-{[3-(3-fluoro-4-{[2-(propan-2-yl)-1H-imidazol-1-yl]methyl}phenyl)-5-(2-methylpropyl)thiophen-2-yl]sulfonyl}-3-(4,4,4-trifluorobutyl)urea trifluoroacetic acid], the half-inhibitory concentration (IC50) came to 0.0029 µM in data set [1] and 5 µM in [2].

The term IC50 denotes the concentration that inhibits the measured activity by half.
